In patent US6103888A, “Mammalian cationic proteins having lipopolysaccharide binding and anti-coagulant activity” (priority 1999, dated 2000):
Read-outs that look alike come from different tables or passages of the source.

How the values were obtained:
[1] = test system: coagulation; experiment: Anti-coagulant activity of human RNIP (preliminary studies); assay type: biochemical
[2] = test system: Salmonella minnesota R595 LPS; experiment: Inhibition of RNIP-mediated hemagglutination by LPS preparation; assay type: binding; settings: Peptide #36-1 16 μg/ml, RNIP (#197) 25 μg/ml preincubated with LPS 37° 30 minutes
Description: (§1) For hemagglutination assays, erythrocytes were sensitized with LPS as follows. One ml of 1% erythrocyte suspension (human 0 type, C3H/HeN mouse or sheep) was mixed with 0.2 ml of LPS solution and incubated at 37° C. for 30 min, followed by washing with phosphate buffered saline (PBS), and then the concentration of suspension was adjusted to 1.0%. In the case of S-LPS, the solution was heated at 100° C. for 1 hour before sensitization of erythrocytes. […] Activity of CAP was expressed as a minimum agglutinating concentration (MAC) of CAP. According to the method of Kirikae et al. (1986) Microbiol. Immunol. 30:269-274, 50 μl of 2-fold serial dilution of Re-LPS was added to 50 μl of 1.0% rabbit erythrocyte suspension, and incubated at 37° C. for 3 hour. Minimum agglutinating concentration of Re-LPS was expressed as 1 HA unit.
(§2) Another series of experiments was performed to determine if the #36-1 and #197 (RNIP) peptides were capable of binding to LPS from various species of Gram-negative bacteria. For these experiments, sheep red blood cells were sensitized with Salmonella minnesota Re-LPS. Peptides #36-1 and #197 (RNIP) were preincubated with various preparations of LPS. Both peptides bind to a diverse group of lipopolysaccharides.
(§3) +Peptide #361 (16 μg/ml) and RNIP (#197) (25 μg/ml) were
(§4) preincubated with each LPS preparation at 37° for 30 minutes, and
(§5) each reaction mixture was added to sheep erythrocytes sensitized with […]

[3] = test system: E. coli J5 LPS; experiment: as above; assay type: binding; settings: Peptide #36-1 16 μg/ml, RNIP (#197) 25 μg/ml preincubated with LPS 37° 30 minutes
Description: as §1, §2, §3, §4, §5

[4] = test system: Klebsiella pneumoniae LPS; experiment: as above; assay type: binding; settings: Peptide #36-1 16 μg/ml, RNIP (#197) 25 μg/ml preincubated with LPS 37° 30 minutes
Description: as §1, §2, §3, §4, §5

[5] = test system: E. coli 0111:B4 LPS; experiment: as above; assay type: binding; settings: Peptide #36-1 16 μg/ml, RNIP (#197) 25 μg/ml preincubated with LPS 37° 30 minutes
Description: as §1, §2, §3, §4, §5

[6] = test system: Pseudomonas aeruginosa F-D Type I LPS; experiment: as above; assay type: binding; settings: Peptide #36-1 16 μg/ml, RNIP (#197) 25 μg/ml preincubated with LPS 37° 30 minutes
Description: as §1, §2, §3, §4, §5

[7] = test system: E. coli 0127:B8 LPS; experiment: as above; assay type: binding; settings: Peptide #36-1 16 μg/ml, RNIP (#197) 25 μg/ml preincubated with LPS 37° 30 minutes
Description: as §1, §2, §3, §4, §5

[8] = test system: E. coli 055:B5 LPS; experiment: as above; assay type: binding; settings: Peptide #36-1 16 μg/ml, RNIP (#197) 25 μg/ml preincubated with LPS 37° 30 minutes
Description: as §1, §2, §3, §4, §5

[9] = test system: thioglycollate-stimulated murine peritoneal macrophages; experiment: LPS-induced tissue factor generation by macrophages (clotting assay); assay type: cell-based; settings: peptides 1 μg/ml incubated with S. minnesota smooth LPS 5 minutes; 6 hr
Description: Tissue factor assay. Salmonella minnesota smooth LPS was incubated with each peptide (1 μg/ml) for 5 min., then the mixture was added to peritoneal murine macrophages obtained 4 days after thioglycollate stimulation. Cells were cultured for 6 hours prior to assay of tissue factor by clotting assay.
Various concentrations of Salmonella minnesota smooth LPS were incubated with each peptide (197 (RNIP), 36-1, 32-1, and 50-2) at 37° C. for 5 minutes prior to mixing with thioglycollate-stimulated murine peritoneal macrophages. Production of tissue factor after 6 hr. was measured by clotting assay. […] In the absence of LPS no tissue factor is synthesized by these cells.

[10] = target: prothrombin (factor II) (Homo sapiens, UniProt P00734); experiment: Prothrombin activation by Echis Carinatus venom (ECV); assay type: biochemical
Description: Prothrombin activation by Echis Carinatus venom (ECV). A reaction mixture of prothrombin (factor II) (0.1 unit/ml, 200 μl), ECV (1 unit/ml, 200 μl), various concentration of peptide (70 μl), 50 μl of 25 mM-CaCl2 and 180 μl of Tris buffer was incubated at 37° C. for 10 min. To 300 μl of the reaction mixture, 60 μl of 4 mM-thrombin substrate and 240 μl of buffer was added and further incubated for 15 min.

[11] = target: T1, factor Xa (Homo sapiens, UniProt P00742); experiment: Direct Xa inhibition using Xa substrate S2222; assay type: biochemical; settings: concentrations over 10 μg/ml
T1 construct: purchased Sigma Chemical Co., St. Louis, Mo
T1 sequence (P00742 235-488 limits assumed): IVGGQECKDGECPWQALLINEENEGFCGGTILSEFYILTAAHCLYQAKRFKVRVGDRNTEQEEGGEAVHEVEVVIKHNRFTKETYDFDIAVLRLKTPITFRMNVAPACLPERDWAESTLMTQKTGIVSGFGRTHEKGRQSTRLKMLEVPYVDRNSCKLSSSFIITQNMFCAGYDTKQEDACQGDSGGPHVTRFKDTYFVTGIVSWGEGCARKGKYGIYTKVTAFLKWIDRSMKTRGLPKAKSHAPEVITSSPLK
T1 sequence (P00742 41-179 limits assumed): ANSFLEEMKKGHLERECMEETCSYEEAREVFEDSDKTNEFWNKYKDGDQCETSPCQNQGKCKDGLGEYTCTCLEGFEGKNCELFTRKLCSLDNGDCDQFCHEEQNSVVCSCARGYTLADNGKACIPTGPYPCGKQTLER
From the text: Clotting method: Human plasma (Ortho plasma control, Ortho Diagnostic Co.). ATPP reagent(Organo-technika, Tokyo, Japan). Standard tissue factor, rabbit brain thromboplastin (Simplastin, ONO Pharmaceutical, Tokyo, Japan). Purified human factor VII, factor X, factor Xa (Sigma Chemical Co., St. Louis, Mo.). Russell Viper venom (RVV) and Echis Carinatus venom (ECV, Sigma Co.).
Synthetic chromogenic substrate method: Substrate for factor Xa, S2222 (Kabi, Bz-Ile-Glu-Arg-pNA) was used. Substrate for factor II (prothrombin), Boc-Val-Pro-Arg-pNA (Sigma Chemical Co.) was used.

[12] = test system: Salmonella minnesota ReLPS sensitized sheep erythrocytes; experiment: LPS hemagglutination assay (MAC); assay type: binding
Description: as §1

[13] = test system: RAW 264.7 cells; experiment: LPS- or IFNγ-induced reactive nitrogen intermediate (RNI) production, Griess nitrite assay; assay type: cell-based, murine
Description: From the sequence of the CAP18 cDNA, it was apparent that the putative N-terminal peptide of CAP18 was in fact an internal fragment of the CAP18 protein. We therefore tried to reconfirm the original protein sequence. Neutrophil-derived heparin bound cationic proteins were prepared as described above and applied to a C18 reverse phase HPLC (FIG. 1). We sequenced the major peaks. Peaks at fractions 14.5 and 15.2 correspond to defensins MCP1 and MCP2 (Territo et al. (1989) J. Clin. Invest. 84:2017-2019), respectively. Fraction 25.8 is macrophage related protein 14 (MRP14) (Odink et al. (1987) Nature 330:80-82). The fraction at 20.3 minutes corresponds to a fragment of CAP18 of approximately 4-5 kD. […] The murine macrophage cell line RAW 264.7 (obtained from ATCC) and thioglycollate-elicited murine peritoneal exudate cells are used to produce RNI. Cells are cultured at 1×10^6 /ml. in RPMI-1640 +2.5% FCS in 24 well plates in the presence or absence of different concentrations of LPS or murine rlFNγ. After 24 hr. incubation at 37° C., the cell free supernatant is collected and tested for the presence of RNI. Accumulation of nitrite in the medium is measured by a calorimetric assay based on the Griess reaction (Green et al. (1982) Anal. Biochem. 126:11) using sodium nitrite as standards. Sample (50 μl) is mixed with 50 μl of Griess reagent (1% sulfanilamide, 0.1% naphthalene diamine dihydrochloride, 2.5% H3 PO4) and after 10 min. at room temperature absorbance is read at 570 nm.

[14] = test system: Human plasma; experiment: Partial thromboplastin time (PTT); assay type: biochemical; settings: dose dependent
Description: Partial thromboplastin time (PTT). Human plasma (100 μl) was incubated with each peptide (100 μl) at 37° C. for 3 min., then 100 μl of CaCl2 containing phospholipid was added and clotting time was measured.

[15] = target: T2, factor X (Homo sapiens, UniProt P00742); experiment: Factor X activation by tissue factor and factor VII, synthetic substrate S-2222; assay type: biochemical
T2 construct: purchased Sigma Chemical Co., St. Louis, Mo
T2 sequence (P00742 183-488): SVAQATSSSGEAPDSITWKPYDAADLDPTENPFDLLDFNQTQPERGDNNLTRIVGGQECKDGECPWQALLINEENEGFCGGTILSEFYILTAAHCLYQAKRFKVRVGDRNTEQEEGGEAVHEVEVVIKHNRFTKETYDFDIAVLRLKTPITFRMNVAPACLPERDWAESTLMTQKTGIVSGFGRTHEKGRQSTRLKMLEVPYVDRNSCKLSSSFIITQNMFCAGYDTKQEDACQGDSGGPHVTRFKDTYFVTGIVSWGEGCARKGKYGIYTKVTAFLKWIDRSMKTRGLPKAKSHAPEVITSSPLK
T2 sequence (P00742 41-179): as the sequence (P00742 41-179 limits assumed) above
Description: Factor Xa activity using synthetic substrate. A reaction mixture of factor VII (1 unit/ml, 200 μl), factor X (1 unit/ml, 200 μl), tissue factor (2.5 mg/ml, 50 μl), 25 mM-CaCl2 (50 μl) and 50 μl of several concentration of peptide was incubated at 37° C. for 10 min. To 200 Al of the reaction mixture, 60 μl of 4 mM S-2222, a synthetic substrate for factor Xa, and 340 μl of Tris-HCl buffer, pH 8.2, was added and further incubated for 15 min. The reaction was stopped by adding 60 μl of 50% acetic acid, and OD for p-nitroaniline was read at 405 nm.

[16] = test system: Human plasma; experiment: Prothrombin time (PT); assay type: biochemical
Description: Prothrombin time (PT). Human plasma (100 μl) was incubated with 100 μl of each peptide at 37° C. for 3 min., then 100 μl of tissue factor (250 μg/ml) CaCl2 was added and clotting time was measured.

Substance | anti-coagulant activity (in words) [1] | anti-coagulant activity (in words) ([1]; listed as Human RNIP) | MIC, minimal inhibitory concentration of LPS [2] [µg/mL] | MIC, minimal inhibitory concentration of LPS [3] [µg/mL] | MIC, minimal inhibitory concentration of LPS [4] [µg/mL] | MIC, minimal inhibitory concentration of LPS [5] [µg/mL] | MIC, minimal inhibitory concentration of LPS [6] [µg/mL] | MIC, minimal inhibitory concentration of LPS [7] [µg/mL] | MIC, minimal inhibitory concentration of LPS [8] [µg/mL] | inhibition of LPS induced tissue factor (in words) [9] | inhibition of Echis carinatus venom activation of purified factor II to IIa (in words) [10] | direct Xa inhibition (in words) [11] | Hemagglutination [MAC], minimum agglutinating concentration [12] [µg/mL] | concentrations at which peptides are active in the bioassay ([13]; day-to-day variation in the bioassay) [nM] | inhibition of LPS-induced RNI production (in words) ([13]; macrophages / RAW 264.7 cells) | inhibition of the partial thromboplastin time (PTT), in words [14] | IC50, Tissue factor VII, X to Xa ([15]; synthetic substrate) [µg/mL] | IC50 ([15]; text value for both peptides, read-out: IC50, factor X activated by tissue factor and purified factor VII) [nM] | inhibition of the prothrombin time (PT), in words [16]
human RNIP: synthetic polypeptide comprising amino acids 134 to 170 of SEQ ID NO:2 (LLGDFFRKSKEKIGKEFKRIVQRIKDFLRNLVPRTES) | lacks significant anti-coagulant activity | free from anti-coagulant activity | – | – | – | – | – | – | – | – | – | – | – | – | – | – | – | – | –
36-1: synthetic rabbit RNIP fragment, amino acids 135-166 of SEQ ID NO:4 (GLRKRLRKFRNKIKEKLKKIGQKIQGLLPKLA) [Peptide 36-1] | – | – | 15.6 | 7.8 | 31.3 | 15.6 | 3.9 | 15.6 | 15.6 | inhibition | inhibited | No evidence of direct Xa inhibition | 3.9 | 10 to 50 | active | inhibited | 0.3 to 0.7 | 40 to 100 | inhibited
